Assay results as given in ChEMBL document CHEMBL2086250, “Long-acting peptidomimetics based DPP-IV inhibitors” (Bioorg Med Chem Lett, 2012).
The source made the active and inactive calls. The calls are words filed in the database; no cut-off is given here.

How the values were obtained:
[1] = Cmax in C57BL/6J mouse at 20 mg/kg, po administered as single dose; type: ADME, organism-based; parameters: dose 20 mg/kg, route oral; details: in vivo
[2] = AUC (0 to alpha) in C57BL/6J mouse at 20 mg/kg, po administered as single dose; type: ADME, organism-based; parameters: dose 20 mg/kg, route oral; details: plasma
Mus musculus [3] = test: Antidiabetic activity against C57BL/6J mouse assessed as reduction serum glucose AUC levels at 20 mg/kg, po measured up to 60 mins by IPGTT method; type: functional, organism-based; parameters: dose 20 mg/kg
[4] = Tmax in C57BL/6J mouse at 20 mg/kg, po administered as single dose; type: ADME, organism-based; parameters: dose 20 mg/kg, route oral; details: in vivo
Mus musculus [5] = test: Antidiabetic activity against C57BL/6J mouse assessed as reduction serum glucose AUC levels at 20 mg/kg, po measured up to 120 mins by IPGTT method; type: functional, organism-based; parameters: dose 20 mg/kg
Mus musculus [6] = test: Antidiabetic activity against C57BL/6J mouse assessed as reduction serum glucose AUC levels at 20 mg/kg, po measured up to 240 mins by IPGTT method; type: functional, organism-based; parameters: dose 20 mg/kg
[7] = Oral bioavailability in C57BL/6J mouse at 20 mg/kg administered as single dose; type: ADME, organism-based; details: in vivo
[8] = Elimination rate constant in C57BL/6J mouse at 20 mg/kg administered as single dose; type: ADME, organism-based; parameters: dose 20 mg/kg; details: in vivo
Mus musculus [9] = test: Antidiabetic activity against C57BL/6J mouse assessed as reduction serum glucose AUC levels at 20 mg/kg, po measured up to 30 mins by IPGTT method; type: functional, organism-based; parameters: dose 20 mg/kg
[10] = Half life in C57BL/6J mouse at 20 mg/kg, po administered as single dose; type: ADME, organism-based; parameters: dose 20 mg/kg, route oral; details: in vivo

Row | SMILES | Cmax [1] | AUC [2] | Activity (Mus musculus [3]) | Tmax [4] | Activity (Mus musculus [5]) | Activity (Mus musculus [6]) | bioavailability [7] | k el [8] | Activity (Mus musculus [9]) | half-life [10]
1 | N#Cc1ccc(C(=O)NCCCC(=O)N2CCC[C@H]2C#N)cc1 | 7100 ng/mL | 14300 ng·h/mL | Active | 17.4 min | Active | Active | 72.5% | 3.06e-05 s⁻¹ | Active | 479 min
2 | N#Cc1ccc(NCCNCC(=O)N2CCC[C@H]2C#N)nc1 | 6200 ng/mL | 6490 ng·h/mL | Active | 19.2 min | inactive | inactive | 65% | – | Active | 52.8 min
3 | N#C[C@@H]1CCCN1C(=O)CCCNC(=O)c1ccc(C(F)(F)F)cc1 | 5900 ng/mL | 6890 ng·h/mL | Active | 16.8 min | inactive | inactive | 63.1% | 0.000228 s⁻¹ | Active | 59.4 min
